Columns and labels:
Assay type in all cases: cell-based
[1] = system: RAW 264.7 cells in high glucose medium; test: Osteoclastogenesis and autophagy of RANKL-treated RAW 264.7 cells in high glucose medium; details: high glucose medium
Procedure: FIG. 20 RAW 264.7 cells were treated with RANKL (100 ng/ml) with or without AdipoRon ([…]) or AdipoAI (5 μM) in low (5 mmol/l) glucose, 20 mmol/l D-mannitol or high (25 mmol/l) glucose medium. qRT-PCR analysis of cathepsin K (A), TRAP (B) and microtubule associated protein 1 light chain 3 (LC3) (C), and mRNA expression were calculated (n≥3). (D) Western blot analysis of LC3A/B protein levels normalized to β-actin. (E) The mean of protein/β-actin ratios normalized to 1.0 (RANKL-AdipoRon-AdipoAI-H group) quantified by densitometry. (F) Autophagosome images obtained with laser confocal microscopy after the RAW 264.7 cells were transfected with a GFP-LC3 plasmid and treated with RANKL and AdipoRon or AdipoAI (scale bar=50 μm). Data are shown as mean±SD. *, P<0.05. **P<0.01. ***P<0.001.
FIG. 21 Autophagy inhibitor reverses AdipoAI-inhibited osteoclastogenesis in high glucose medium. RAW 264.7 cells were treated with RANKL (100 ng/ml) in 2 days and with or without AdipoAI (5 μM) for 24 hours followed by 3-methyladenine (3-MA, 2.5 mM) treatment for another 24 hours in high glucose medium. qRT-PCR analysis of cathepsin K (A), TRAP (B) and LC3 (C) mRNA expression were calculated (n≥3). (D) Western blot analysis of LC3A/B protein levels normalized to β-actin. (E) The mean of protein/β-actin ratios normalized to 1.0 (3-MA-, RANKL-, AdipoAI-group) quantified by densitometry. Data are shown as mean±SD. *, P<0.05. **P<0.01. ***P<0.001.
FIG. 22 AdipoAI-induced autophagy of osteoclasts in high glucose medium via AKT1/mTOR signaling pathway. RAW 264.7 cells were induced with RANKL for 2 days and then treated with or without (5 μM) additional 24 hours after serum starvation for 4 hours. Then, the cells were treated with RANKL, AdipoAI or SC79 (5 μM), an AKT activator, for another 24 hours in high glucose medium. qRT-PCR analysis of mRNA expression of cathepsin K (A), TRAP (B) and LC3 (C) were calculated (n≥3). (D) Representative images show the protein expression levels of AKT, p-AKT, AKT1, p-AKT1, mTOR, p-mTOR, and LC3A/B in osteoclasts. Quantitative analysis of bands is shown in (E-K) (n≥3). Data are shown as mean±SD. *, P<0.05. **P<0.01. ***P<0.001. R: RANKL. A, AI: AdipoAI. SC5: SC79 (5 μM).
RAW 264.7 cells (ATCC, Manassas, VA, USA) were cultured and passaged in DMEM supplemented with 10% (v/v) FBS (Invitrogen, Grand Island, NY, USA) and 1% Penicillin-Streptomycin (Gibco, Gaithersburg, MD, USA). For the induction of osteoclastogenesis, RAW 264.7 cells were cultured 24 in α-MEM supplemented with 10% FBS and 1% Penicillin-Streptomycin in the presence of 100 ng/ml RANKL (Peprotech, Rocky Hill, NJ, USA) for 2 days, and subsequently treated or not with AdipoRon or AdipoAI for another 2 days changing cell culture medium every 2 days. After a total of […] of culture, morphologic examination was performed, as was mRNA and protein expression. To simulate high glucose environment in vitro, α-MEM was supplemented with D-glucose to 25 mmol/l (high glucose) or 5 mmol/l (physiological glucose). 20 mmol/l D-mannitol served as an osmotic control.
Total RNA was isolated from cell cultures and gingival soft tissues using TriZol reagent (Life Technologies, Carlsbad, CA, USA) according to the manufacturer's instructions^24. Reverse transcription was performed using the PrimeScript RT Master Mix (Takara Bio, Otsu, Japan) and real-time-qPCR analyses were performed using SYBR-Green Real-Time PCR Master Mix (Takara Bio, Otsu, Japan) as described earlier^27.
Total cellular extracts were prepared using RIPA Lysis and Extraction Buffer containing three Protease Inhibitors (Santa Cruz, Dallas, TX, USA). Western blot analyses were performed as previously described 24. Antibodies for β-actin (1:2000) and GAPDH (1:5000), LC3A/B (1:1000), AKT1 (1:1000), p-AKT1 (1:1000), AKT (1:1000), p-AKT (1:1000), mTOR (1:1000), p-mTOR (1:1000) were purchased from Abcam and Cell Signaling Technology, respectively. SC79, an AKT activator was purchased from Sigma Aldrich. […]

[2] = system: Raw264.7 cells; test: CCK-8 cytotoxicity assay, 24 hours; details: at 40 μM or lower concentrations
Procedure: (§1) FIG. 1 Characterization of anti-inflammatory properties of APR-like compounds. (a) Raw264.7 cells were pretreated with APR (20 μM) or new compounds 1 to 10 (5 μM) for 24 h followed by incubation with LPS (100 ng/mL) for an additional 6 h. IL-6 and IL-1β mRNA expression levels were evaluated by qPCR and normalized with GAPDH mRNA level. (b) Raw264.7 cells were pretreated with different doses of AdipoAI for 24 h followed by incubation with LPS (100 ng/mL) for additional 6 h to evaluate dose-dependency of AdipoAI in inhibiting IL-6 and IL-1β mRNA expression levels by qRT-PCR and normalized with GAPDH mRNA level. (c) Evaluation of cytotoxicity of APR, AdipoAI and compound 5 by CCK8 assay in Raw264.7 cells treated for 24 hours. (d) BMMs were pretreated with APR (20 μM), AdipoAI (5 μM) or compound 5 (5 μM) for 24 h followed by incubation with LPS (100 ng/ml) for additional 6 h for the measurement of IL-6 and IL-1β mRNA expression levels by qRT-PCR and normalized with GAPDH mRNA level. Data were expressed as the mean±SEM at five biological independent experiments. One-way ANOVA test for multiple-group comparisons, *P<0.05, significant differences between each indicated group.
Raw264.7 cells were seeded at 2×10^3 cells/well in 96-well plates for 16 hours and then serum-starved for 6 hours. Cells were maintained in DMEM in the presence of different concentrations of APR (AdipoGen Life Sciences, San Diego, CA, USA) and compounds for 24 hours. […] The detailed group assignment is shown in the individual figure legends.

[3] = system: LPS-stimulated RAW 264.7 macrophages; test: qPCR of cytokine mRNA in LPS-stimulated RAW 264.7 macrophages; details: compounds at 5 μM vs APR at 20 μM, 24 h pretreatment, then LPS 100 ng/mL 6 h
Procedure: as §1
RAW 264.7 macrophage cell line was purchased from ATCC (Manassas, VA, USA) and maintained in DMEM (Gibco, Life Technologies, Carlsbad, CA, USA) supplemented with 10% (v.v-1) FBS (Gibco, Life Technologies) and 1% (v.v-1) penicillin/streptomycin (Gibco, Life Technologies). The cells were routinely cultured in an incubator at 37° C. in a humidified atmosphere of 5% CO2.
Total RNA of cells was extracted using Quick-RNA Miniprep Kit (ZYMO Research, Irvine, CA, USA) and total RNA from mouse tissues was prepared with TriZol reagent (Life Technologies) according to the manufacturer's instructions followed by qRT-PCR assays as described previously (L. Zhang et al., 2014). 1 μg of total RNA was used for reverse transcription using the M-MLV Reverse Transcriptase (Thermo Scientific, Waltham, MA, USA) according to the manufacturer's protocol using PowerUp SYBR Green Master Mix (Thermo Scientific) on a Bio-Rad iQ5 thermal cycler (Bio-Rad Laboratories, Hercules, CA, USA). Differences in expression were evaluated by the comparative cycle threshold method using GAPDH or β-actin as a control. The primer sequences used for the qRT-PCR experiments are listed in supplemental Table 1.
Macrophages were seeded at a density of 5×10^5 cells/well in 12-well plates. After overnight incubation, the cells were transfected for 24 h with siRNAs targeting specific genes or scrambled control siRNAs using HiPerFect Transfection Reagent (Qiagen, Hilden, Germany) according to the manufacturer's guidelines. Gene silencing efficiency was monitored by qPCR or Western blot analysis. The siRNA duplexes used in this study were chemically synthesized by Thermo Scientific.

SMILES: Cn1cnc(N)c2ncnc1-2 [3-methyladenine, reference compound]
- LC3 mRNA and LC3II protein induced by AdipoAI ([1]; 3-MA 2.5 mM 24 hours): decreased the mRNA expression of LC3 and protein expression of LC3II induced by AdipoAI
- AdipoAI-inhibited mRNA expression of Cathepsin K and TRAP ([1]; 3-MA 2.5 mM): reversed the AdipoAI-inhibited mRNA expression of osteoclastogenesis markers Cathepsin K and TRAP

SMILES: CC(c1ccccc1)N1CCC(NC(=O)COc2ccc(C(=O)c3ccc(Cl)cc3)cc2)CC1 (stereo not drawn) [Compound 5]
- cytotoxic effects (CCK-8) [2]: neither of the 3 small molecules mediated significant cytotoxic effects
- inhibition of IL-6 and IL1-β mRNA expression [3]: stronger inhibitory effects than APR

SMILES: CCOC(=O)C1=C(N)Oc2ccc(Cl)cc2C1C(C#N)C(=O)OCC (stereo not drawn) [SC79, reference compound]
- LC3II, AKT expression and AKT, AKT1, mTOR phosphorylation changes induced by AdipoAI ([1]; SC79 5 μM): reverses the promoted expression of LC3II
- LC3 mRNA and osteoclastogenic marker mRNA under AdipoAI ([1]; SC79 5 μM): reverses the upregulated expression of LC3 mRNA and downregulated expression of osteoclastogenic markers
